Experiments:
Format in all cases: cell-based
Escherichia Coli = test: Antimicrobial testing by agar dilution, E. Coli; conditions: after 10, 20, 40 and 60 minutes at all dilutions 1:100, 1:200, 1:400, 1:800
Method: (§1) The antimicrobial properties of the [4,4-bis(4-nitrophenyl)-2,5-dioxoimidazolidin-1-yl]acetic acid were studied by the method of agar dilution. Test solutions of each compound was prepared in concentration of 1% using dimethylformamide as a solvent then they are diluted in physiological solution to obtain the final experimental dilutions 1:100, 1:200, 1:400, 1:800. The effect of these substances are compared with furacillin in a controlable study. The testing microbes used were gram positive bacteria Staphylococcus Aereus, gram negative bacteria Escherichia Coli, Pseudomonas aeruginosa and Candida albicans fungi were taken.
(§2) The experiments used for this survey were meat-pentonlu agar (EPA) for cultivation of bacteria and Saburo environment for fungi. Each experiment used 1 ml of test solution on each plate 500 min. Add 2 drops of emulsified with microbes feel. All experimental samples were taken from the agar after 10, 20, 40, 60 minutes in the environment on the basis of Patrk planted. Bacteria were cultivated at a temperature of 37° C. for 1 day and the mushroom was kept in a thermostat for […] at a temperature of 28° C. in the. Then results were checked.

Candida albicans = test: Antimicrobial testing by agar dilution, Candida albicans; conditions: Candida albicans fungi, after 10, 20, 40 and 60 minutes at all dilutions 1:100, 1:200, 1:400, 1:800
Method: as §1, §2

Pseudomonas aeruginosa = test: Antimicrobial testing by agar dilution, Ps. aeruginosa; conditions: after 10, 20, 40 and 60 minutes at all dilutions 1:100, 1:200, 1:400, 1:800
Method: as §1, §2

Staphylococcus Aereus = test: Antimicrobial testing by agar dilution, St. Aereus; conditions: after 10, 20, 40 and 60 minutes at all dilutions 1:100, 1:200, 1:400, 1:800
Method: as §1, §2

Measured: inhibition activity

O=C(O)CN1C(=O)NC(c2ccc([N+](=O)[O-])cc2)(c2ccc([N+](=O)[O-])cc2)C1=O [[4,4-bis(4-nitrophenyl)-2,5-dioxoimidazolidin-1-yl]acetic acid]
higher inhibition activity: all assays above

Source: US11999700B1, “[4,4-bis(4-nitrophenyl)-2,5-dioxoimidazolidin-1-yl]acetic acid as an antimicrobial compound” (KING FAISAL UNIVERSITY, priority 2023, dated 2024)
